According to patent publication US20110027178A1, “IMAGING THE CENTRAL NERVOUS SYSTEM” (priority 2008, published 2011):

Biological target: T1, P2X7 receptor (Homo sapiens, UniProt Q99572)
T1 construct: expressed in transfected cells; host or cells: HEK.293 cells, transient transfection
T1 sequence (Q99572 1-595): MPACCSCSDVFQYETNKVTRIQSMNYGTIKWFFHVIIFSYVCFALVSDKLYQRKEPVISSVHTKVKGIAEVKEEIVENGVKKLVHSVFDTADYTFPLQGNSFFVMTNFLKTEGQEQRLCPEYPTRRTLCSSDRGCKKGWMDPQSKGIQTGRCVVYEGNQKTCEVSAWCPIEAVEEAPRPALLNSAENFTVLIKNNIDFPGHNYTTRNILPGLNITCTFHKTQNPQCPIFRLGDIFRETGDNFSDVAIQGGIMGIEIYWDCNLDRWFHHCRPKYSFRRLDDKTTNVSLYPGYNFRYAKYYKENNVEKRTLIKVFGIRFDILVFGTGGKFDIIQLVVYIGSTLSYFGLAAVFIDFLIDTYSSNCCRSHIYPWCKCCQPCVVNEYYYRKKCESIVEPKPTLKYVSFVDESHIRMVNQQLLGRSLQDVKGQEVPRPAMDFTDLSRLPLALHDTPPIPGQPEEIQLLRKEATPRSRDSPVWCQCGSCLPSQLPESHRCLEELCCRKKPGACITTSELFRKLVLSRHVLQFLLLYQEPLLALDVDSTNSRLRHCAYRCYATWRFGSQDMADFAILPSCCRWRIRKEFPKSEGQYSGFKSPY
Experiment: Pore-forming assay (Yo Pro-1 dye uptake), P2X7 receptor functional assay
Format: cell-based
Settings: P2X7 transfected HEK.293 cells, Bz-ATP 30 μM, Yo Pro-1 1 μM, triplicate
Description: Non-radioactive versions of the Imaging Agents illustrated in Table I were screened in a P2X7 receptor functional assay. This assay is described in Example 9 and is based upon the ability of the P2X7 receptor to form a non-selective pore in P2X7 transfected HEK.293 cells upon activation with an agonist, thereby allowing dye to permeate the cells. The non selective P2X channel antagonist used as a reference inhibitor for the evaluation of the non-radioactive compound of the invention was pyridoxal-phosphate-6-azophenyl-2′,4′-disulfonate (PPADS), and the results of the assay are provided in Table I above.
The assay method used was based on the ability of the DNA binding dye, Yo Pro-1 (quinolinium, 4[3-methyl-2(3H)-benzoxazolylidene) methyl]-1-[3-(trimethyl-ammonio) propyl]-[…]) to enter through the dilated or “large pore form” of the P2X7 receptor and to bind to intracellular DNA/RNA whereupon it increases fluorescence intensity. Yo Pro-1 was therefore used to quantify inhibition of P2X7 function. This assay was based on the methods published by Michel et al., (B.J. Pharmacol 1998; 125: 1194-1201).
Initially, HEK.293 cells were transiently transfected using LipofectamineTMLTX (Invitrogen) for 72 hrs with P2X7 cDNA. 48 hours prior to use the cells were seeded into poly-D-lysine coated 96-well black-walled, clear bottomed plates, at a density of 30,000 cells/well. Stock solutions of each test compound were prepared at a concentration of 40 mM in 100% DMSO
Following the 48 hour incubation the culture medium was removed from the transfected cells, the cells were washed once and placed in pre-warmed sucrose assay buffer (Sucrose: 280 mM, KCl: 5 mM, CaCl2: 0.5 mM, glucose: 10 mM, HEPES: 10 mM, N-methyl-D-glucamine: 10 mM; pH7.4). The test compounds were added to the plate at a concentration of 10 μM and 100 nM in triplicate and incubated at 37° C. for 30 minutes. The final DMSO concentration in the assay was 1%. After this time Yo Pro-1 dye and Bz-ATP solution was added at concentrations of 1 μM and 30 μM respectively for 60 minutes at 37° C. The fluorescence was then read at 485 nm excitation and 530 nm emission.
The non-selective P2X channel antagonist PPADS was used as a reference inhibitor in the assay. A dose-response to PPADS was performed on the assay plate using a starting concentration of 200 μM followed by a 1 in 6 serial dilution covering 200 μM to 0.4 nM. For each compound data set, a percentage inhibition value was calculated based on the three assay points generated.

SMILES	% Inhibition (test compound 100 nM)	% Inhibition (test compound 10 μM)
O=C(CC12CC3CC(CC(C3)C1)C2)Nc1cccc2nc(NCCNCCOCC[18F])ccc12 [Non-radioactive Imaging Agent 3]	0.00%	62.0%
[18F]c1ncccc1Cn1nnnc1-c1cccc(Cl)c1Cl [Non-radioactive Imaging Agent 5]	10.0%	69.6%
O=C1CSC(=O)N1C(CCc1ccncc1)COc1ccc(-c2cc([N+](=O)[O-])ccc2F)cc1 (stereo not drawn) [Non-radioactive Imaging Agent 2, 3-[1-(2′-Fluoro-5′-nitro-biphenyl-4-yloxymethyl)-3-pyridin-4-yl-propyl]-thiazolidine-2,4-dione]	22.0%	72.0%
